Laboratory results reported in patent US5432274A, “Redox dye and method of preparation thereof using 2-hydroxypropyl-β-cyclodextrin and 1,1'-dimethylferrocene” (National Research Council of Canada, priority 1993, dated 1995).

What was measured:
[1] = prepared with soluble bilirubin oxidase, stored at 4° C.
[2] = Sensitivity of the dye / its absorption characteristics to pH variation; format: physicochemical; details: products of chemical oxidation by ceric sulfate or iodine/KI
Description: It was also noted that the DMFeCp2 -hp-β-CD complex stored at room temperature began to turn green, indicating a preference toward the oxidized state. As also reported, 15 the redox potential of DMFeCp2 is lowest (100 mV) among several known ferrocene-related compounds and this may contribute to the stability of DMFeCp2^+ in comparison to FeCp2^+. Both forms of ferricinium were insensitive to pH variation from 2-11. This characteristic is of advantage since the assay can be performed regardless of some fluctuation in pH and is applicable for a variety of oxidases with different pH optima. Due to the instability of the concentrated FeCp2^+, further studies focused on the electrochemically produced DMFeCp2^+.
Both FeCp2 and DMFeCp2 were oxidized by ceric sulfate or iodine/KI to FeCp2 H^+, (ferrocenonium) and DMFeCp2 H^+ (1,1'-dimethylferrocenonium), respectively. The reaction was almost instantaneous and the spectra of these two cation species were identical to those of ferricinium and 1,1'-dimethylferricinium. […] Such results were not completely unexpected since in strong acid media ferrocene was reported to undergo extensive protonation on the metal atom.

[3] = water; cited from earlier work
glucose oxidase = biological target: T1, glucose oxidase (Aspergillus niger, UniProt P13006); experiment: Kinetic studies of the blue dye with oxidases (Michaelis-Menten constant); format: biochemical; details: compared with lactate oxidase and xanthine oxidase
T1 construct: purchased Sigma (St. Louis, Mo.)
T1 sequence (P13006 17-605): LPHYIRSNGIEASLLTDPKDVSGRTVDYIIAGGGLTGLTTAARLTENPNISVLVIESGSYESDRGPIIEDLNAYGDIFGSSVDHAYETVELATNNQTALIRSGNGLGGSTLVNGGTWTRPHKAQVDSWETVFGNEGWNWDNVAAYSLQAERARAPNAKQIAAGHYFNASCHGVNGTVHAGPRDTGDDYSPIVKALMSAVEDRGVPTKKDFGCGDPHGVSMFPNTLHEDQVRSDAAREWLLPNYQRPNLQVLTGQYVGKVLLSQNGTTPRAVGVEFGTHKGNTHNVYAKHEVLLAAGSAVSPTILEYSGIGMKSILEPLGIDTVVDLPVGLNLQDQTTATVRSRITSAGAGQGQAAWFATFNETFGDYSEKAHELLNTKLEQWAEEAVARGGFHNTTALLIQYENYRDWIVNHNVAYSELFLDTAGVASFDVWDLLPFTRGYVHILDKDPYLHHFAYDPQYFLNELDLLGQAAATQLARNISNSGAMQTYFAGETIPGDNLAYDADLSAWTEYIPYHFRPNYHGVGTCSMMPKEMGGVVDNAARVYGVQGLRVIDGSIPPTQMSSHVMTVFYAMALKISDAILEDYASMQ

Compound | stability against changes in pH [2] | solubility of the cyclodextrin in aqueous solutions [3] | further results
ferricinium [FeCp2^+] |  |  | time stable [1]: 2 months
2-hydroxypropyl-β-cyclodextrin [Hp-β-CD] |  | 50 % w/v | 
1,1'-dimethylferricinium [DMFeCp2^+] |  |  | Michaelis-Menten constant for the blue dye (glucose oxidase): noticeably higher
OC[C@H]1O[C@@H]2O[C@H]3[C@H](O)[C@@H](O)[C@@H](O[C@H]4[C@H](O)[C@@H](O)[C@@H](O[C@H]5[C@H](O)[C@@H](O)[C@@H](O[C@H]6[C@H](O)[C@@H](O)[C@@H](O[C@H]7[C@H](O)[C@@H](O)[C@@H](O[C@H]1[C@H](O)[C@H]2O)O[C@@H]7CO)O[C@@H]6CO)O[C@@H]5CO)O[C@@H]4CO)O[C@@H]3CO [α-CD, α-cyclodextrin] |  | 12-16 % w/v | 

Second part, led by results:

stability against changes in pH [2] | Compound | solubility of the cyclodextrin in aqueous solutions [3] | further results
not stable against changes in pH | ferrocenonium [FeCp2 H^+] |  | 
not stable against changes in pH | CC1C=CC=C1.C[c-]1cccc1.[Fe+2] [DMFeCp2 H^+, 1,1'-dimethylferrocenonium] |  | 
